Drawing on patent publication US5814627A, “3, 5-disubstituted and 3, 4, 5-trisubstituted 2-isoxazolines and isoxazoles, process for their preparation and their use as pharmaceuticals” (Hoechst Aktienegesellschaft, priority 1994, dated 1998), this text covers activity for five molecules.

Common to all, as to assay type: cell-based
Assay [1] has as its system polymorphonuclear leucocytes (PMNL). The assay can be described thus: Test 1: Release of proteolytic activity from human PMNL. As to conditions: Homo sapiens, PMNL, read-out: Test 1 residual activity (release of proteolytic activity), percent of control. In a few lines: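 Human peripheral-blood PMNL (5·10^6 cells/ml in PBS with 7.5 mM glucose) preincubated 20 min at 37° C. with compound, then primed with cytochalasin B (5 μg/ml) and TNF (30 ng/ml), and stimulated with fMLP (10 nmol/l) for 60 min. Released protease in supernatant read with methoxysuccinyl-nitroanilide substrate at 405 nm over 0-60 min, pH 7.5.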

Assay [2] concerns leukotriene B4 synthesis in white blood cells. Nature of the assay: Test 3: LTB4 formation by white blood cells. The conditions noted are these: Homo sapiens, read-out: Test 3 residual activity (LTB4 formation), percent of control. In a few lines: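 Human blood leukocytes (dextran sedimentation, 10^7 cells/ml) preincubated 15 min at 37 °C with compound plus CaCl2/MgCl2, then stimulated with A23187/glutathione for 5 min at 37 °C. LTB4 in supernatant quantified by reversed-phase HPLC with UV at 280 nm; residual activity given as percent of control at stated μM concentration.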

Assay [3] concerns TNFα release from mononuclear cells. The assay can be described thus: Test 4: cytokine release from LPS-stimulated mononuclear cells, TNFα. As to conditions: Homo sapiens, read-out: Test 4 residual activity (TNFα release), percent of control. As for the experimental part: Test 4. Stimulation of the cytokine release
Isolation of mononuclear cells from human blood
10 ml of human blood, stabilized with 1 ml of 3.8% sodium citrate solution, were diluted with 10 ml of PM16 (Serva, Heidelberg) and underlaid with 15 ml of Lymphoprep (Dr. Molter GmbH, Heidelberg). The samples were centrifuged, at room temperature for 40 minutes, at 400×g (1600 rpm, Minifuge 2, Heraeus, Osterode). The mononuclear cells are visible as a white ring at the Lymphoprep/plasma interface. This ring was carefully removed with a syringe, diluted with an equal volume of PM16, and centrifuged for 10 minutes at 400×g. The sediment was washed with approximately 10 ml of RPMI1640 (+300 mg/l L-glutamine, Gibco, Eggenstein) (Wallis, 1986). After the cells had been resuspended in approximately 1 ml of RPMI1640 (+300 mg/l L-glutamine+25 mM HEPES+100 μg/ml streptomycin+100 μg/ml penicillin), the cell density was determined using a Coulter Counter JT (Coulter Diagnostics) and adjusted to 5*10^6 /ml. Typically, the cells are composed of 90% lymphocytes and 10% monocytes.
230 μl of mononuclear cells were incubated, at 37° C.; 5% CO2 for 20-22 hours (5 hours in the case of IL-6), with 10 μl of test substance (10 μM in DMSO/water, 1/10) and 10 μl of lipopolysaccharide (LPS; 500 μg dissolved in 1 ml of DMSO and diluted 1/10 with water prior to beginning the test; from Salmonella abortus equi, Sigma, Deisenhofen). The samples were cooled down to 0° C. in an ice bath and centrifuged in a Sigma centrifuge (2 minutes; 2000 rpm). Aliquots of the supernatant are measured with an ELISA (Biermann, Bad Nauheim). The abbreviation IL stands for interleukin and TNF for tumor necrosis factor alpha.
The values in the table show the concentration of the test substance which was employed in μM and, besides this, the residual activity measured in percent based on the control, which was set to be 100%. The interleukin is additionally indicated in test 4.

Regarding `CC(C)(C)c1cc(C2CC(CCC(=O)O)=NO2)cc(C(C)(C)C)c1O` (centres unmarked) [Example 63, 5-(4-Hydroxy-3,5-di-tert-butylphenyl)-2-isoxazolin-3-ylpropionic acid], the activity at 10 µM stood at 88% in assay [1] and 91% in assay [2]. Also, the activity at 100 µM in assay [1] was 66%.
`CCOC(=O)CNC(=O)OCCCc1cc(-c2cc(C(C)(C)C)c(O)c(C(C)(C)C)c2)no1` [Example 41, N-(3-(4-Hydroxy-3,5-di-tert-butylphenyl)isoxazol-5-ylpropoxycarbonyl)glycine ethyl ester]: the activity at 100 µM in assay [1] was determined as 78%. Also, the figures for the activity at 10 µM in assay [2] and in assay [3] were 13% and 89%, respectively.
Consider `CC(C)(C)c1cc(C2=NOC(c3ccccn3)C2)cc(C(C)(C)C)c1O` (centres unmarked) [Example 9], for which, in assay [1], the activity at 100 µM amounted to 64%. In assay [2], the activity at 1 µM turned out to be 59% and the activity at 10 µM is 0%. The activity at 10 µM in assay [3] was determined as 63%.
With `CC(O)c1cc(-c2cc(C(C)(C)C)c(O)c(C(C)(C)C)c2)no1` (centres unmarked) [Example 28], in assay [1], the activity at 1 µM was determined as 97% and the activity at 10 µM came to 59%. In addition, in assay [2], the activity at 1 µM was determined as 14% and the activity at 10 µM came to 0%.
Consider `CC(C)(C)c1cc(-c2cc(CNS(=O)(=O)C(F)(F)F)on2)cc(C(C)(C)C)c1O` [Example 49, N-(3-(4-Hydroxy-3,5-di-tert-butylphenyl)isoxazol-5-ylmethyl)trifluoromethanesulfonamide], for which, in assay [1], the activity at 1 µM is 88%, the activity at 10 µM is 23% and the activity at 100 µM was found to be 19%. For the same molecule, in assay [2], the activity at 1 µM is 90% and the activity at 10 µM turned out to be 0%. Moreover, the activity at 10 µM in assay [3] was 91%.
